One series concerns MDA-MB-231 cells. Kind of series: [3H]-thymidine incorporation assay, MDA-MB-231. In kind it is cell-based. The note with it: Homo sapiens. As to the method:
The antiproliferative properties of the newly synthesized compound were investigated through the [^3H]-thymidine incorporation assay, as described in the literature. Cells culture was exposed to various concentrations of Les-3331 acid and reference drug for 24 h. Thereafter, cells were washed with PBS and 1 mL of fresh medium was added to each well. Then, 0.5 µCi of radioactive [^3H]-thymidine was appended, and the incubation continued for four hours. After the following incubation, the liquid was aspirated and the plate was placed on ice. Cells were washed twice with 1 mL of 0.05 M Tris-HCl buffer comprising 0.11 M NaCl, then twice after that with 1 mL of 5% TCA acid (Stanlab, Lublin, Poland). Finally, the cells were dissolved with 1 mL of 0.1 M NaOH with 1% SDS (Sigma-Aldrich, St. Louis, MO, USA) at room temperature (RT). The resulting cell lysates were transferred into scintillation vials containing 2 mL of scintillation fluid. The radioactivity was determined using Scintillation Counter 1900 TR, TRI-CARB (Packard, Perkin Elmer, Inc., San Jose, CA, USA). The intensity of DNA biosynthesis in cells was expressed in dpm of radioactive thymidine incorporated in the DNA. The radioactivity observed in untreated control cells was taken as 100%. Values from the tested compounds were expressed as a percentage of the control value.
On the technique in general: Dividing cells build labelled thymidine or BrdU into new DNA.

The target in the next series is T1, CYP3A4 (Homo sapiens, UniProt P08684).
T1 construct: purchased Promega (Madison, WI, USA)
T1 sequence (P08684 whole entry): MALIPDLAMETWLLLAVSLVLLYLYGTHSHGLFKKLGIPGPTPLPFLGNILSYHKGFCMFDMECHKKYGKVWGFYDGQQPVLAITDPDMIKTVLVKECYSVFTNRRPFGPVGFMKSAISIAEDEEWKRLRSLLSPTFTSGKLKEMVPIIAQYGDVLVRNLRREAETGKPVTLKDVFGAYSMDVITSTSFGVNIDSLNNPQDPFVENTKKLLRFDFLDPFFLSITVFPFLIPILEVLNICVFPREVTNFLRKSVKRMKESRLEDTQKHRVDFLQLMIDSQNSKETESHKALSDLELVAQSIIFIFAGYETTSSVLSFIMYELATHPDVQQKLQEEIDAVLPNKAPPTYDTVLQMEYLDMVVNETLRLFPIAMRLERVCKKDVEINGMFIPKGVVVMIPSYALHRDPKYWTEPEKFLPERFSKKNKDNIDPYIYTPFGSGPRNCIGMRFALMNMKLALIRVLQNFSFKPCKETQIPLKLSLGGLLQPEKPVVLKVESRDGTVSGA
The series is described as follows: Luminescent CYP3A4 P450-Glo assay. It is filed as in vitro ADME. The note with it: at 10 and 25 µM. As to the method:
(§1) For investigation of potential drug-drug interactions, the luminescent CYP3A4 and CYP2D6 P450-Glo assays obtained from Promega® (Madison, WI, USA) were used. Les-3331 was tested in triplicate at the final concentrations from 0.01 to 25 µM according to the protocols provided by Promega®. The reference inhibitors were tested at 1 µM. The luminescent signal was measured using a microplate reader, EnSpire PerkinElmer (Waltham, MA, USA).

A further series has as its system human skin fibroblasts. Kind of series: MTT cell viability assay, skin fibroblasts. In kind it is cell-based. The note with it: Skin fibroblast, 24 h incubation. As to the method: Cell culture MCF-7, MDA-MB-231 human breast cancer cells, and fibroblasts skin cells were purchased from the ATCC—American Type Culture Collection. All cell lines were maintained in DMEM (Corning, Kennebunk, ME, USA). The medium was supplemented with 10% fetal bovine serum—FBS (Eurx, Gdansk, Poland) and 1% antimicrobial substances: penicillin–streptomycin (Corning, Kennebunk, ME, USA). The incubator asserted appropriate growth conditions required for these cell lines: 5% of CO2, at 37 °C, with the humidity between 90–95%. Cells were seeded in 100 mm round dishes. An amount of 0.05% trypsin containing 0.02% EDTA (Corning, Kennebunk, ME, USA) and phosphate-buffered saline (PBS) without calcium and magnesium (Corning, Kennebunk, ME, USA) was used to detach cells from a plate once 80–90% cell confluence was achieved. In the next step, cells were reseeded in six-well plates (density—5 × 10^5 of cells per well) in 1 mL of DMEM after a 24 h incubation used in the presented tests.
To examine the effect of Les-3331 on cell viability, the MTT assay was performed. […] The absorbance was measured using Spectrophotometer UV-VIS Helios Gamma (Unicam/ThermoFisher Scientific Inc., Waltham, MA, USA) at a wavelength of 570 nm. The obtained absorbance in untreated control cells was taken as 100%, while the survival of the cells incubated with tested compounds presented as a percentage of the control value.
(In general: Tetrazolium dyes change colour on reduction, which living cells bring about.)

Another series concerns the target T2, CYP2D6 (Homo sapiens, UniProt P10635).
T2 construct: purchased Promega (Madison, WI, USA)
Kind of series: Luminescent CYP2D6 P450-Glo assay. In kind it is in vitro ADME. The note with it: at the highest dose 25 µM. The protocol:
as §1

In series [1] the test system is Salmonella Typhimurium TA100. The note with it: Ames MPF. As to the method: The mutagenicity was evaluated using Ames microplate fluctuation protocol (MPF) from Xenometrix (Allschwil, Switzerland). The applied Salmonella Typhimurium TA100 strain was enabled to detect base-pair substitution (hisG46 mutation, for which target is GGG). Les-3331 was tested independently in two final concentrations, 1 and 5 µM, in triplicate. The reference mutagen 4-NQO was tested at 26.3 µM. The occurrence of revertants was visualized using pH indicator dye, which was present in the bacterial medium. The color changes from violet to yellow were confirmed using measurements of absorbance with a microplate reader, EnSpire, at 420 nm. According to the protocols and data sheets provided by Xenometrix, the medium control baseline (MCB) was calculated first, which refers to the number of revertants observed in the control (growth medium + 1% DMSO) plus standard deviation. Next, the Binomial B-value was calculated for tested compounds which indicates the probability that spontaneous mutations occurred. The fold increase ≥2 over the MCB and/or Binomial B-value ≥ 0.99 are considered as the mutagen alert.

A short description of series [2]: Parallel artificial membrane permeability assay (PAMPA). In kind it is in vitro ADME. The note with it: 200 µM in PBS pH 7.4, 5 h at RT, read-out: permeability coefficient Pe. As to the method: All in vitro assays used for the evaluation of Les-3331 ADME-Tox parameters were described previously. In brief, for the determination of permeability, Pre-coated PAMPA Plate System Gentest^TM was purchased from Corning (Tewksbury, MA, USA). […] PAMPA plates with compounds added to the donor wells were incubated for 5 h at RT. UPLC-MS Waters ACQUITY—TQD system with the TQ Detector (Waters, Milford, MI, USA) was used next for determination of compounds concentrations in donor and acceptor wells, which were required for calculation of permeability coefficient Pe according to formulas provided by the manufacturer.

SMILES strings stand for the structures. Like-named read-outs stand apart in the source and are kept apart here. Where only a bound is given, the exact number is not on record here.

T2 sequence (P10635 whole entry): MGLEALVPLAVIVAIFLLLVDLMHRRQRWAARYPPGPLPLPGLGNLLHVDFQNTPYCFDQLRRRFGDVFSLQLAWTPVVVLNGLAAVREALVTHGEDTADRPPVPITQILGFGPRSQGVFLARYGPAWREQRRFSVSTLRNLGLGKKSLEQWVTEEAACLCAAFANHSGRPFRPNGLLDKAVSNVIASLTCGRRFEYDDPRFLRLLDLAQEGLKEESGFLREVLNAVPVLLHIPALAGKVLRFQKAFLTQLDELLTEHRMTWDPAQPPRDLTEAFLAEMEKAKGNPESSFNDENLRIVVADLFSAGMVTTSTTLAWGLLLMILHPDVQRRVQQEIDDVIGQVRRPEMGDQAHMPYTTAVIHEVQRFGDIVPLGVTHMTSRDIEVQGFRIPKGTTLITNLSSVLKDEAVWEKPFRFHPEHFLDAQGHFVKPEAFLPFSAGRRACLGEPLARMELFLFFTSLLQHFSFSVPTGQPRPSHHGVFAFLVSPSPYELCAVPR

`COc1cc([C@@H]2c3cc4c(cc3[C@@H](O[C@@H]3O[C@@H]5CO[C@@H](C)O[C@H]5[C@H](O)[C@H]3O)[C@H]3COC(=O)[C@H]23)OCO4)cc(OC)c1O` [Etoposide, reference compound]: the IC50 with MDA-MB-231 cells (MDA-MB-231, 24 h incubation, read-out: IC50, cell proliferation ([3H]-thymidine incorporation)) is > 20 µM.

As to `CC(C)C(C(=O)O)N1C(=O)/C(=C/C(Cl)=C/c2ccc([N+](=O)[O-])cc2)SC1=S` (centres unmarked) [Les-3331, 2-{5-[(Z,2Z)-2-chloro-3-(4-nitrophenyl)-2-propenylidene]-4-oxo-2-thioxothiazolidin-3-yl}-3-methylbutanoic acid], the “effect on CYP3A4 activity” value at CYP3A4 is “activated”. Further, the IC50 in the series with MDA-MB-231 cells (MDA-MB-231, read-out: IC50, cell proliferation ([3H]-thymidine incorporation)) is 8.01 µM; in the series on human skin fibroblasts, 28.5 µM. On CYP2D6, the “effect on CYP2D6 activity” value is listed as “slight inhibition”. Moreover, the mutagenicity entry in series [1] (TA100, 1 µM) was “not mutagenic”. In addition, the “fold increase in MCB” value in series [1] (TA100, 5 µM) is “twofold increase in MCB was not reached”. Further, the Papp at 5 h, 200 µM in series [2] came out at 0.96 ×10⁻⁶ cm/s.

Source of the values: article PMC9032233, “2-{5-[(Z,2Z)-2-Chloro-3-(4-nitrophenyl)-2-propenylidene]-4-oxo-2-thioxothiazolidin-3-yl}-3-methylbutanoic Acid as a Potential Anti-Breast Cancer Molecule” (International Journal of Molecular Sciences, 2022).
